Results reported in patent EP4168403B1 (priority 2020, dated 2021).

Columns and labels:
[1] = target: T1, Human red-blood cell acetylcholinesterase (hAChE; EC 3.1.1.7) (Homo sapiens, UniProt P22303); test: biochemical; settings: pH 7.4, 37 °C, mean ± SEM, read-out: AChE (IC50 µM)
T1 construct: Human red-blood cell acetylcholinesterase; purchased Sigma-Aldrich (Prague, Czech Republic); host or cells: human red blood cells
Experimental: The AChE and BuChE inhibitory activity of the tested compounds was determined using a modified Ellman's method^31, 32.Human red-blood cell acetylcholinesterase (hAChE; EC 3.1.1.7), and human recombinant butyrylcholinesterase (hBuChE; EC 3.1.1.8), 5,5'-dithiobis(2-nitrobenzoic acid) (Ellman's reagent, DTNB), phosphate buffer (PB, pH 7.4), acetylthiocholine (ATC), and butyrylthiocholine (BTC), were purchased from Sigma-Aldrich (Prague, Czech Republic). Nunc polystyrene 96-well microplates with flat-bottom shape (ThermoFisher Scientific, USA) were used for the measurement and all the assay were carried out in 0.1 M KH2PO4/K2HPO4 buffer, pH 7.4. Enzyme solution was prepared at activity 2.0 units/mL in 2 mL aliquots. The assay mixture (100 µL) consisted of 40 µL of 0.1 M phosphate buffer (pH 7.4), 20 µL of 0.01 M DTNB, 10 µL of enzyme, and 20 µL of 0.01 M substrate (ATC iodide solution). Tested compounds were dissolved first in methanol (BIGI 23 in DMSO) and then further diluted by assay buffer to the final concentration. […] Enzyme with the inhibitor was preincubated for 5 min in the assay mixture and then the reaction was started by addition of 20 µL of substrate (ATC for AChE, BTC for BuChE). […] Each concentration was assayed in triplicate. The obtained data were used to compute the percentage inhibition (I; Equation 1): I = 1−(ΔAi)/(ΔA0) [%] [formula] ΔAi indicates the absorbance change provided by cholinesterase exposed to AChE inhibitors and ΔA0 indicates absorbance change caused by intact cholinesterase (phosphate buffer was used instead of AChE inhibitor solution).

[2] = target: T2, human recombinant butyrylcholinesterase (hBuChE; EC 3.1.1.8) (Homo sapiens, UniProt P06276); test: Cholinesterase inhibition in vitro assay (modified Ellman's method), BuChE; type: biochemical; settings: pH 7.4, 37 °C, mean ± SEM, read-out: BChE (IC50 µM)
T2 construct: purchased Sigma-Aldrich (Prague, Czech Republic)
T2 sequence (P06276 29-602): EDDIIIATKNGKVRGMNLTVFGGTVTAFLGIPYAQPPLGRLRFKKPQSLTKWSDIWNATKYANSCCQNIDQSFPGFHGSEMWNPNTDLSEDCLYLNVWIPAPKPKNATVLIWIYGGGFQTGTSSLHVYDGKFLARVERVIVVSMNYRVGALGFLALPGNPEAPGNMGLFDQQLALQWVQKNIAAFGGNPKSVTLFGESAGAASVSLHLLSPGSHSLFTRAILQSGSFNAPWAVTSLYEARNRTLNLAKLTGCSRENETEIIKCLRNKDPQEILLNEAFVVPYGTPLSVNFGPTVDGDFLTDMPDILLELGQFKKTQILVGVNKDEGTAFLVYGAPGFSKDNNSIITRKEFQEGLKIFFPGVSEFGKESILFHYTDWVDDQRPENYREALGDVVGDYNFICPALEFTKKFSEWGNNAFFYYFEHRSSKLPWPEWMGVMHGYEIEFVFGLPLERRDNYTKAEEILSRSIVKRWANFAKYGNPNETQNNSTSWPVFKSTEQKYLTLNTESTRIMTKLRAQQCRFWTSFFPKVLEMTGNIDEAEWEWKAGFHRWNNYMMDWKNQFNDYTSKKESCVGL
Experimental: The AChE and BuChE inhibitory activity of the tested compounds was determined using a modified Ellman's method^31, 32.Human red-blood cell acetylcholinesterase (hAChE; EC 3.1.1.7), and human recombinant butyrylcholinesterase (hBuChE; EC 3.1.1.8), 5,5'-dithiobis(2-nitrobenzoic acid) (Ellman's reagent, DTNB), phosphate buffer (PB, pH 7.4), acetylthiocholine (ATC), and butyrylthiocholine (BTC), were purchased from Sigma-Aldrich (Prague, Czech Republic). Nunc polystyrene 96-well microplates with flat-bottom shape (ThermoFisher Scientific, USA) were used for the measurement and all the assay were carried out in 0.1 M KH2PO4/K2HPO4 buffer, pH 7.4. Enzyme solution was prepared at activity 2.0 units/mL in 2 mL aliquots. The assay mixture (100 µL) consisted of 40 µL of 0.1 M phosphate buffer (pH 7.4), 20 µL of 0.01 M DTNB, 10 µL of enzyme, and 20 µL of 0.01 M substrate (ATC iodide solution). Tested compounds were dissolved first in methanol (BIGI 23 in DMSO) and then further diluted by assay buffer to the final concentration. […]. […] Enzyme with the inhibitor was preincubated for 5 min in the assay mixture and then the reaction was started by addition of 20 µL of substrate (ATC for AChE, BTC for BuChE). The enzyme activity was determined by measuring the increase in absorbance at 412 nm at 37 °C at 2 min intervals using a Multi-mode microplate reader Synergy 2 (Vermont, USA). Each concentration was assayed in triplicate. The obtained data were used to compute the percentage inhibition (I; Equation 1): I = 1−(ΔAi)/(ΔA0) [%] [formula] ΔAi indicates the absorbance change provided by cholinesterase exposed to AChE inhibitors and ΔA0 indicates absorbance change caused by intact cholinesterase (phosphate buffer was used instead of AChE inhibitor solution). […] Calculations were performed using software Microsoft Excel (Redmont, WA, USA) and GraphPad Prism version 5.02 for Windows, GraphPad Software, San Diego, CA, USA.

[3] = Oxygen Radical Absorbance Capacity (ORAC-FL) assay; settings: Trolox equivalents (µmol of Trolox equivalent/µmol of compound)
Experimental: The radical scavenging capacity of the TFAHs was determined by the ORAC-FL method using fluorescein as a fluorescent probe^33,34. (±)-6-Hydroxy-2,5,7,8-tetramethylchromane-2-carboxylic acid (Trolox), fluorescein (FL) and 2,2'-azobis(amidinopropane) dihydrochloride (AAPH) were purchased from Sigma-Aldrich. A Varioskan Flash plate reader with built-in injectors (Thermo Scientific) was used. The reaction was carried out at 37 °C in 75 mM phosphate buffer (pH= 7.4), and the final volume reaction mixture was 200 µL. The tested compounds and Trolox standard were dissolved in DMSO to 10 mM and further diluted in 75 mM phosphate buffer (pH= 7.4). The final concentrations were 0.1-1 µM for the tested compounds and 1-8 µM for Trolox standard. The blank was composed of 120 µL of FL, 60 µL of AAPH and 20 µL of phosphate buffer (pH=7.4) and was added in each assay.
The net AUC corresponding to a sample was calculated as follows: Net AUC = AUCantioxidant −AUCblank . [formula]
Regression equations were calculated by plotting the net AUC against the antioxidant concentration. The ORAC value was obtained by dividing the slope of the latter curve between the slope of the Trolox curve obtained in the same assay. Final ORAC values were expressed as µmol of Trolox equivalent/µmol of TFAH.

Aβ1-42 = target: T3, Aβ1-42 (Homo sapiens, UniProt P05067); test: Inhibition of Aβ1-42 self-aggregation (ThT fluorescence); type: biochemical; settings: [Inhibitor]=[Aβ1-42]=50 µM, mean ± SEM
T3 construct: pre-treated Aβ1-42 samples (Bachem AG, Switzerland); purchased Bachem AG, Switzerland
T3 sequence (P05067 672-713 limits assumed): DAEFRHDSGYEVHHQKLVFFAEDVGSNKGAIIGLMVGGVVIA
Experimental: Experiments were performed by incubating the peptide in 10 mM phosphate buffer (pH=8.0) containing 10 mM NaCl, at 30 °C for 24 h (final Aβ concentration=50 µM with and without inhibitor (50 µM). The inhibitor was dissolved in methanol and diluted in the assay buffer. Blanks containing inhibitor and ThT were also prepared and evaluated to account for quenching and fluorescence properties. To quantify amyloid fibril formation, the ThT fluorescence method was used^36, 37. After incubation, samples were diluted to a final volume of 2.0 mL with […] glycine-NaOH buffer (pH= 8.5) containing 1.5 µM ThT. A 300-seconds-time scan of fluorescence intensity was carried out (λexc=446 nm; λem=490 nm), and values at plateau were averaged after subtracting the background fluorescence of 1.5 µM ThT solution. The fluorescence intensities were compared and the % inhibition was calculated.
The inhibitory activity of compounds BIGI-3e, BIGI-3h and BIGI-3k against the spontaneous aggregation of Aβ1-42 was determined in vitro using a thioflavin T (ThT)-based fluorometric assay^35. […].

T1 sequence (P22303 32-617 isoform P22303-2 limits assumed): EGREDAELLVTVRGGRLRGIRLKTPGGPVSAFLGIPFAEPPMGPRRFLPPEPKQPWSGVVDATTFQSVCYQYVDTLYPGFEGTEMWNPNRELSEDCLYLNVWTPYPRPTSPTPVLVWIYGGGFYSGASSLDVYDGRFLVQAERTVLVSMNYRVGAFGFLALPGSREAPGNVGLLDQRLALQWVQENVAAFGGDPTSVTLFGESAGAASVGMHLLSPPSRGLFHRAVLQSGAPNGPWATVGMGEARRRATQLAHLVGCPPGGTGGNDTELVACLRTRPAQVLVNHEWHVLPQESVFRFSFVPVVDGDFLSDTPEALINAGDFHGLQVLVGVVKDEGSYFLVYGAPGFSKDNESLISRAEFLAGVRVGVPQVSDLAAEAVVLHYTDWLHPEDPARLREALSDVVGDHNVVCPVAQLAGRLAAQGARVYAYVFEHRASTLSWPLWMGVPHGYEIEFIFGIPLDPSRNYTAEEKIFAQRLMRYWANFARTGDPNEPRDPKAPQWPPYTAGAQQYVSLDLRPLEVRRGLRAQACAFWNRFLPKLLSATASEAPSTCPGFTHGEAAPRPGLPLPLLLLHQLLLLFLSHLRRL

## CCOC(=O)C1=C(C)N(CCC2CCN(Cc3ccccc3)CC2)C(=O)NC1c1coc2c(Cl)cc(Cl)cc2c1=O (racemic) [BIGI-3h, ethyl 1-(2-(1-benzylpiperidin-4-yl)ethyl)-4-(6,8-dichloro-4-oxo-4H-chromen-3-yl)-6-methyl-2-oxo-1,2,3,4-tetrahydropyrimidine-5-carboxylate]
[1]
  IC50: 0.06 µM
[2]
  IC50: 17.3 ± 0.9 µM
[3]
  ORAC: 3.65± 0.07 TE
Aβ1-42
  inhibition at 50 µM: 66 ± 0.7%
Aβ1-42; 50 µM
  % inhibition Aβ1-42 aggregation: 63.6 ± 1.3%

## CCOC(=O)C1=C(C)N(CCC2CCN(Cc3ccccc3)CC2)C(=O)NC1c1coc2ccc(Br)cc2c1=O (stereo not shown) [BIGI-3e, ethyl 1-(2-(1-benzylpiperidin-4-yl)ethyl)-4-(6-bromo-4-oxo-4H-chromen-3-yl)-6-methyl-2-oxo-1,2,3,4-tetrahydropyrimidine-5-carboxylate]
[1]
  IC50: 0.06 µM
[2]
  IC50: 8.4 ± 0.34 µM
[3]
  ORAC: 3.26 ± 0.12 TE
Aβ1-42
  inhibition at 50 µM: 63 ± 2.1%

## CCOC(=O)C1=C(C)N(CCCC2CCN(Cc3ccccc3)CC2)C(=O)NC1c1coc2cc(CC)ccc2c1=O (stereo not shown) [BIGI-3k, ethyl 1-(3-(1-benzylpiperidin-4-yl)propyl)-4-(7-ethyl-4-oxo-4H-chromen-3-yl)-6-methyl-2-oxo-1,2,3,4-tetrahydropyrimidine-5-carboxylate]
[1]
  IC50: 0.5 ± 0.02 µM
[2]
  IC50: 2.95 µM
[3]
  ORAC: 2.75 ± 0.16 TE
Aβ1-42
  inhibition at 50 µM: 63.8 ± 0.8%
